Results taken from patent US9469645B2, “Compounds and compositions for the treatment of parasitic diseases” (Novartis AG, priority 2009, dated 2016).

Legend:
3D7 P. falciparum strain = experiment: parasite proliferation assay in infected red blood cells (SYBR Green I); assay type: cell-based, Plasmodium falciparum; details: Plasmodium falciparum, 3D7, Erythrocyte, 3D7 strain; read-out: EC50 3D7 strain
In short: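 P. falciparum 3D7 grown in O+ human erythrocytes to 3–8% parasitemia and exposed to compounds. Proliferation read as the increase in parasite DNA. Detection used SYBR Green I in saponin/triton-X/EDTA lysis buffer, with overnight lysis at room temperature.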

W2 strain = experiment: parasite proliferation assay in infected red blood cells (SYBR Green I), W2 strain; assay type: cell-based; details: Erythrocyte
Excerpt: Compounds of the invention can be assayed to measure their capacity to inhibit proliferation of parasitemia in infected red blood cells. The proliferation is quantified by the addition of SYBR Green I (INVITROGEN)® dye which has a high affinity for double stranded DNA.

| Structure (SMILES) | EC50 (3D7 P. falciparum strain) | EC50 (W2 strain) | EC50 (W2 strain; Plasmodium falciparum) |
| --- | --- | --- | --- |
| N[C@H](C(=O)N1CCn2c(nc(-c3ccc(F)cc3)c2Nc2ccc(F)cc2)C1)C(F)(F)F [Compound 195] | 20 nM | 20 nM |  |
| CC(C)(C)OC(=O)N[C@@H](CC(=O)OCc1ccccc1)C(=O)N1CCn2c(nc(-c3cccc(F)c3)c2Nc2ccc(Cl)c(F)c2)C1 [Compound 236] | 5250 nM | 2060 nM |  |
| CC1(C)CN(C(=O)CN)Cc2nc(-c3cccc(F)c3)c(Nc3ccc(Cl)cc3)n21 [Compound 620] | 40 nM |  | 41 nM |
| CCC(=O)Nc1ccc(C[C@H](N)C(=O)N2CCn3c(nc(-c4cccc(F)c4)c3Nc3ccc(Cl)c(F)c3)C2)cc1 [Compound 259] | 5320 nM | 3020 nM |  |
| CC1(C)c2nc(-c3ccc(F)cc3)c(Nc3ccc(F)cc3)n2CCN1C(=O)CNCCCNC(=O)CCc1ccccc1 [Compound 730, N-(3-(2-(2-(4-fluorophenyl)-3-(4-fluorophenylamino)-8,8-dimethyl-5,6-dihydroimidazo[1,2-a]pyrazin-7 (8H)-yl)-2-oxoethylamino)propyl)-3-phenylpropanamide] | 1360 nM |  | 474 nM |
| CC(C)(N)C(=O)N1CCn2c(nc(-c3cccc(F)c3)c2Nc2ccc(Cl)c(F)c2)C1 [Compound 229] | 10 nM | 7 nM |  |
| CCC(=O)Nc1ccc(C[C@H](N)C(=O)N2CCn3c(nc(-c4ccc(F)cc4)c3Nc3ccc(C)cc3)C2)cc1 [Compound 187] | 6680 nM | 3550 nM |  |
| CCN1CCC(CC(=O)N2CCn3c(nc(-c4ccc(F)cc4)c3Nc3ccc(Cl)c(F)c3)C2)CC1 [Compound 304] | 3210 nM | 2950 nM |  |
| O=C(CN1CCCC(F)(F)C1)N1CCn2c(nc(-c3ccc(F)cc3)c2Nc2ccc(F)cc2)C1 [Compound 43] | 180 nM | 149 nM |  |
| Cc1ccc(Nc2c(-c3ccc(F)cc3)nc3n2CCN(C(=O)[C@@H]2Cc4[nH]cnc4CN2)C3)cc1 [Compound 176] | 2750 nM | 1790 nM |  |
| Fc1ccc(-c2nc3n(c2Nc2ccc(Cl)c(F)c2)CCNC3)cc1 [Compound 192] | 110 nM | 95 nM |  |
| Cc1ccc(Nc2c(-c3ccc(F)cc3)nc3n2CCN(C(=O)C(C)(C)CO)C3)cc1 [Compound 244] | 2400 nM | 1330 nM |  |
| CN[C@@H](CC(C)C)C(=O)N1CCn2c(nc(-c3ccc(F)cc3)c2Nc2ccc(C)cc2)C1 [Compound 378] | 60 nM | 63 nM |  |
| CCO[C@@H](Cc1ccc(O)cc1)C(=O)N1CCn2c(nc(-c3ccc(F)cc3)c2Nc2ccc(C)cc2)C1 [Compound 210] | 40 nM | 26 nM |  |
| Fc1ccc(Nc2c(-c3cccc(F)c3)nc3n2CCNC3)cc1 [Compound 191] | 170 nM | 151 nM |  |
| Cc1ccc(Nc2c(-c3cccc(F)c3)nc3n2CC(=O)NC3(C)C)cc1F [Compound 603] | 50 nM |  | 73 nM |
| CCCN(CCC)CC(=O)N1CCn2c(nc(-c3ccc(F)cc3)c2Nc2ccc(C)cc2)C1 [Compound 147] | 2430 nM | 1520 nM |  |
| CN1CCn2c(nc(-c3ccc(F)cc3)c2Nc2ccc(F)cc2)C1(C)C [Compound 606] | 20 nM |  | 28 nM |
| CC1(C)c2nc(-c3ccc(F)cc3)c([S+]([O-])c3cccc(F)c3)n2CCN1C(=O)CN (centres unmarked) [Compound 719] | 481 nM |  | 361 nM |
| O=C(Cc1n[nH]c2ccccc12)N1CCn2c(nc(-c3ccc(F)cc3)c2Nc2ccc(Cl)c(F)c2)C1 [Compound 306] | 420 nM | 334 nM |  |
| Cc1cc(Nc2c(-c3cccc(F)c3)nc3n2CC(=O)N(CCCC(=O)O)C3(C)C)ccc1F [Compound 692, 4-(3-(4-fluoro-3-methylphenylamino)-2-(3-fluorophenyl)-8,8-dimethyl-6-oxo-5,6-dihydroimidazo[1,2-a]pyrazin-7(8H)-yl)butanoic acid] | 6450 nM |  | 5340 nM |
| Cc1ccc(Nc2c(-c3ccc(F)c(F)c3)nc3n2CCN(C(=O)[C@@H](N)C(C)C)C3)cc1 [Compound 396] | 30 nM | 22 nM |  |
| CC1(C)c2nc(-c3ccc(F)cc3)c(NC3CCC(C(F)(F)F)CC3)n2CCN1C(=O)CN (centres unmarked) [Compound 662] | 38 nM |  | 33 nM |
| CCC(C)(O)CC(=O)N1CCn2c(nc(-c3ccc(F)cc3)c2Nc2ccc(C)cc2)C1 (centres unmarked) [Compound 143] | 150 nM | 219 nM |  |
| CC1(C)c2nc(-c3ccc(F)cc3)c([S+]([O-])c3ccc(F)cc3)n2CCN1C(=O)CN (centres unmarked) [Compound 720] | 70 nM |  | 69 nM |
| O=C(Cn1ccc2ccccc21)N1CCn2c(nc(-c3ccc(F)cc3)c2Nc2ccc(Cl)c(F)c2)C1 [Compound 303] | 540 nM | 439 nM |  |
| COC(=O)c1ccc(Nc2c(-c3ccccc3)nc3n2CCN(C(=O)C(C)(C)N)C3)cc1 [Compound 9] | 13800 nM | 3990 nM |  |
| CC(C)[C@H](N)C(=O)N1CCn2c(nc(-c3ccc(F)cc3)c2Nc2ccc(Cl)c(F)c2)C1 [Compound 313] | 20 nM | 4 nM |  |
